{"source": "patent US20250025440A1", "about": "“COMPOSITIONS AND METHODS FOR MANAGEMENT OF HUMAN PAPILLOMA VIRUS-ASSOCIATED CANCERS” (LOMA LINDA UNIVERSITY, priority 2021, published 2025)", "type_in_all_cases": "cell-based", "key": {"SCC104 (HPV+)": {"system": "SCC104 (HPV+)", "test": "Colony formation assay", "details": "SCC104, treated 24 hours", "description": "(§1) For assessing the long-term effects on the survival of cells following GA-OH treatment, the colony formation assay (CFA) was performed. Two cell lines, SCC19 (HPV^−) and SCC104 (HPV^+) were used for this study. The cells were treated for 24 hours with GA-OH, and then seeded for assessment of colony formation. Cell survival data from this study mirrored the impact of GA-OH on cell viability of HPV^+ and HPV^− cell lines. […] FIG. 7C is a graphical representation of the effects of GA-OH on the clonogenicity of the surviving fractions of HPV^+ versus HPV^− cell lines.\n(§2) Sub-confluent monolayer cells were treated with different doses of GA-OH for 24 hours. Cells were trypsinized and re-suspended before re-plating into 6 well plates in DMEM or MEM at 500-1000 cell densities, depending on the cell line. Cells were then allowed to grow for 10-20 days, depending on the cell line, before fixing and staining. A mixture of methanol/acetic acid was used for fixing, followed by 0.5% crystal violet staining. Plates were imaged using UV imager, and colonies with more than […] counted using image J. Surviving fractions were determined by dividing the number of colonies by the number of cells seeded as a product of the corresponding plating efficiency. Survival fractions curves were plotted using GraphPad Prism."}, "SCC19 (HPV-)": {"system": "SCC19 (HPV-)", "test": "Colony formation assay", "details": "SCC19, treated 24 hours", "description": "as §1, §2"}, "[1]": {"system": "HPV+ cell lines (SCC090, SCC104, SiHa)", "test": "Caspase 3/7 activity Glo assay", "details": "0.75 μM, 24 hours", "description": "(§3) These findings were then confirmed by conducting a Caspase 3/7 activity Glo assay, which is a surrogate for apoptotic induction. Three HPV^+ cell lines (SCC090, SCC104, SiHa) and two HPV^− cell lines (SCC19, SCC84) were assessed for activity of caspases 3 and 7, and thus for apoptosis activity. […] FIG. 8B is a graphical representation of the Caspase 3/7 activity of gambogic acid in various HPV+ and HPV− cell lines. These cell lines were seeded in 96 well plates and treated with 0.75 uM GA-OH. Caspase 3/7 activity was measured after 24 hours. HPV^+ cell lines show high levels of Caspase 3/7 activity. […] FIG. 10 is a graphical representation of the cell viability as measured by MTT, when three HPV^+ cell lines (SCC090, SCC104, SiHa) and two HPV^− cell lines (SCC19, SCC84) were treated with gambogic acid.\n(§4) Cells were seeded into white walled 96-well plates at 2×10^4 cells per well in 100 μL media and incubated overnight. GA-OH (0.75 μM) and vehicle were then added and incubated at 37° C. for 24 hr. Caspase 3/7 activity was measured using the Caspase 3/7 Glo kit (Promega, Fitchburg, WI, USA) following the manufacturer's instructions. Briefly, room temperature-equilibrated Caspase-Glo reagent was added (Promega) to each well. […] After a 2-hr incubation, luminescence was measured using a plate-reading fluorimeter (Flx800, Bio-Tek Instrument Co., Winooski, VT, USA). […]"}, "[2]": {"system": "HPV- cell lines (SCC19, SCC84)", "test": "Caspase 3/7 activity Glo assay", "details": "0.75 μM, 24 hours", "description": "as §3, §4"}}, "data": [{"substance": "30-hydroxygambogic acid [GA-OH]", "values": [{"measurement": "number of colonies", "setting": "SCC104 (HPV+)", "result": "significantly and dose-dependently reduced"}, {"measurement": "number of colonies", "setting": "SCC19 (HPV-)", "result": "did not exhibit significant reduction relative to their control except at high concentrations"}, {"measurement": "Caspase 3/7 activity (apoptosis induction)", "setting": "[1]", "result": "Significant apoptosis induction"}, {"measurement": "Caspase 3/7 activity (apoptosis induction)", "setting": "[2]", "result": "little to no apoptosis activity"}]}]}
